Assay [1] has as its system transient middle cerebral artery occlusion (tMCAO) rat model of stroke. The assay can be described thus: Modified Neurological Rating Scale (mNRS), tMCAO rat model of stroke. In kind it is in vivo. Conditions: 50 μg/kg SC once per day, tMCAO rats. How it is done:
(§1) For the purposes of this Example, Transient middle cerebral artery occlusion (tMCAO) procedure Day is defined as “Day 1” in this study. On the day of surgery anesthesia were induced with 4% isoflurane in a mixture of 70% N2O and 30% O2 and maintained with 1.5-2% isoflurane.
(§2) The tMCAO procedures were performed according to the method described R. Schmid-Elsaesser et al., A critical reevaluation of the intraluminal thread model of focal cerebral ischemia: evidence of inadvertent premature reperfusion and subarachnoid hemorrhage in rats by laser-doppler flowmetry, Stroke, 1998, 29(10): 2162-2170. Briefly, the right CCA (Common Carotid Artery) was exposed through a midline neck incision and carefully dissected free from surrounding nerves and fascia—from its bifurcation to the base of the skull. The occipital artery branches of the ECA (External Carotid Artery) were then isolated, and these branches were dissected and coagulated. The ECA was dissected further distally and coagulated along with the terminal lingual and maxillary artery branches, which was then divided. The ICA (Internal Carotid Artery) was isolated and carefully separated from the adjacent vagus nerve, and the pterygopalatine artery was ligated close to its origin with a 5-0 nylon suture (SMI, Belgium). […]

The test system is the same in assay [2]. Description: Forelimb placement test, tMCAO rat model of stroke. Type of assay: in vivo. Conditions: 50 μg/kg SC once per day; for forelimb placement: first day of statistically significant improvement vs vehicle: tMCAO rats; for forelimb placement score improvement vs vehicle control / forelimb placement score improvement vs vehicle control, percent: by day 50. Here is the method:
as §1
(§3) The tMCAO procedures were performed according to the method described R. Schmid-Elsaesser et al., A critical reevaluation of the intraluminal thread model of focal cerebral ischemia: evidence of inadvertent premature reperfusion and subarachnoid hemorrhage in rats by laser-doppler flowmetry, Stroke, 1998, 29(10): 2162-2170. Briefly, the right CCA (Common Carotid Artery) was exposed through a midline neck incision and carefully dissected free from surrounding nerves and fascia—from its bifurcation to the base of the skull. The occipital artery branches of the ECA (External Carotid Artery) were then isolated, and these branches were dissected and coagulated. The ECA was dissected further distally and coagulated along with the terminal lingual and maxillary artery branches, which was then divided. The ICA (Internal Carotid Artery) was isolated and carefully separated from the adjacent vagus nerve, and the pterygopalatine artery was ligated close to its origin with a 5-0 nylon suture (SMI, Belgium). Next, a 4-0 silk suture was tied loosely around the mobilized ECA stump, and a 4 cm length of 4-0 monofilament nylon suture (the tip of the suture was blunted by using a flame, and the suture was coated with polylysine, prior to insertion) was inserted through the proximal ECA into the ICA and thence into the circle of Willis, effectively occluding the MCA. The surgical wound was closed and the animals were returned to their cages to recover from anesthesia. One hour and a half after occlusion rats were re-anesthetized, the monofilament was withdrawn to allow reperfusion, the surgical wound was closed and rats were returned to their cages.
(§4) Animals were subjected to a modified Modified Neurological Rating Scale (mNRS) at 24 hours post reperfusion. Only animals with an overall score of ≧10 were included in this study. Animals were allocated into the test groups, according to the mNRS results on day 2, in order to have similar distribution of rats performance between groups. Starting on day 2, 24 hours post-surgery, each animal was administered one of 50 μg/kg of either TXA301 (SEQ ID NO: 20) or TXA302 (SEQ ID NO: 18) or […]; via subcutaneous (SC) administration.
The limb placing tests were divided into both forelimb and hindlimb tests. For the forelimb-placing test, the examiner held the rat close to a tabletop and scored the rat's ability to place the forelimb on the tabletop in response to whisker, visual, tactile, or proprioceptive stimulation. Similarly, for the hindlimb placing test, the examiner assessed the rat's ability to place the hindlimb on the tabletop in response to tactile and proprioceptive stimulation. Separate sub-scores were obtained for each mode of sensory input and added to give total scores (for the forelimb placing test: 0=normal, 12=maximally impaired; for the hindlimb placing test: 0=normal; 6=maximally impaired). Scores were given in half-point increments as follows: whisker placing (0-2), visual placing-forward (0-2), -sideways (0-2); tactile placing-dorsal (0-2), -lateral (0-2); proprioceptive placing (0-2); for a total of 0-12.

Assay [3] has the same test system. Description: Cerebral blood flow and vessel diameter (laser Doppler), tMCAO rat model of stroke. Conditions: day 50; 50 μg/kg SC. In kind it is in vivo. Here is the method: as §1, §3, §4
Evaluation of blood flow in the cerebral cortex and vessel constriction was carried out using a Flow-R Laser Doppler system, in which intracranial blood flow and vessels diameter (constriction/dilation) was monitored. The Doppler procedure was carried out on Day 50 after the stroke and was performed while the animals were under isoflurane anesthesia.

The next assay concerns HUVEC cells. Description: cAMP production in HUVEC (cAMP enzyme immunoassay of cell lysate). In kind it is cell-based, human. Conditions: 15 minutes stimulation. How it is done:
Prior to stimulation with Ala^1-Arg^2-Val^3-Ser^4-Ile^5-His^6-Cys^7 (SEQ ID NO: 18), HUVEC cells were washed twice with PBS and then incubated for 1 hour in serum-free medium. In this Example, in order to generate a dose response curve, the peptide concentration ranged from 1×10^−13-1×10^−6 M. After 15 minutes stimulation, the medium containing peptide was removed and the cells were lysed (0.1M HCl, 0.1% Triton X-100). The clear lysate was collected, and 25 μl were used for determining the protein concentration (Pierce BCA Protein Assay Kit, Thermo Scientific, Rockford, USA) and the remaining fraction stored at −80° C. for later analysis.
cAMP concentration in cell lysates was determined using cAMP Enzyme Immunoassay Kit, Direct from Sigma-Aldrich (St. Louis, Mo., USA). Briefly, wells of 96-well plate (Goat Anti-Rabbit IgG pre-coated) were neutralized with 50 μl of Neutralizing Reagent. Next, 100 μl of acetylated cyclic AMP standard or cell lysate was added, followed by 50 μl of blue cAMP-Alkaline Phosphatase Conjugate and 50 μl of yellow EIA Rabbit Anti-cAMP antibody. The plate was then incubated on a shaker (˜500 rpm) for two hours at room temperature. […] The enzymatic reaction was stopped by adding 50 μl of Stop Solution, and the absorbance at 405 nm was measured immediately. The cAMP concentration was determined from non-linear standard curve using GraphPad Prism 5.0 software. […]
On the technique in general: Changes in cAMP serve as a functional read-out for many G protein-coupled receptors.

Assay [4] concerns transient middle cerebral artery occlusion (tMCAO) rat model of stroke. Description: Body swing test, tMCAO rat model of stroke. In kind it is in vivo. Conditions: 50 μg/kg SC once per day, tMCAO rats. How it is done:
as §1
as §2, with “coagulated.” for “coagulated. The ECA was dissected further distally and coagulated along with the terminal lingual and maxillary artery branches, which was then divided. The ICA (Internal Carotid Artery) was isolated and carefully separated from the adjacent vagus nerve, and the pterygopalatine artery was ligated close to its origin with a 5-0 nylon suture (SMI, Belgium).”
The rat was held approximately one inch from the base of its tail. […] A swing was recorded whenever the rat moved its head out of the vertical axis to either side. Before attempting another swing, the rat had to return to the vertical position for the next swing to be counted. Twenty (20) total swings were counted. […] Body swing scores are expressed as a percentage of […] over total swings.

For assay [5] the test system is unchanged. Description: Stepping test, tMCAO rat model of stroke. Type of assay: in vivo. Conditions: 50 μg/kg SC once per day, tMCAO rats. Here is the method: as §1
as §2, with “coagulated.” for “coagulated. The ECA was dissected further distally and coagulated along with the terminal lingual and maxillary artery branches, which was then divided. The ICA (Internal Carotid Artery) was isolated and carefully separated from the adjacent vagus nerve, and the pterygopalatine artery was ligated close to its origin with a 5-0 nylon suture (SMI, Belgium).”
Animals were tested for forelimb akinesia in a stepping test. The animal was held with its hind limbs fixed with one hand and the forelimb not monitored with the other, while the unrestrained fore-paw touches a table. The number of adjusting steps were counted while the animal was moved sideways along the table surface (85 cm in approximately five seconds), in the forehand & backhand direction for both forelimbs.

In assay [6] the test system is human umbilical vein endothelial cells (HUVEC). The assay can be described thus: BDNF production in HUVEC (BDNF Emax immunoassay of cell medium). Type of assay: cell-based. Conditions: for lowest dose stimulating significant BDNF expression: serum-free medium, 24 hours stimulation. Here is the method:
(§5) Prior to stimulation, cells were washed twice with sterile PBS and then provided with the respective serum free cell medium. Cells were incubated in the serum-free medium for one hour and afterwards stimulated for 24 hours. For the dose response measurement the peptides were used in a range from 10^−14M to 10^−6M. For all other experiments, a 10^−7M concentration of the peptides was used, whereas isoproterenol and forskolin were used in a 10^−6M concentration. To maintain the concentration of the substances over a period of 24 hours they were added again into the medium after 12 hours. After stimulation, the concentration of BDNF was determined in the cell medium. The samples were either used directly or stored at −80° C.
(§6) For the determination of the concentration of BDNF the BDNF Emax® immunoassay system from Promega was used. At first, 96-well plates were coated with anti-BDNF overnight at 4° C. The next day, the plates were washed with TBST and incubated with blocking buffer for one hour at room temperature. Afterwards, the plate was washed again with TBST, and 100 μl of sample were applied per well. The plate was incubated on a shaker (˜400 rpm) for two hours at room temperature and later on washed five times with TBST. To each well 100 μl pAb anti-human BDNF were added, and the plate again incubated under continuous shaking for two hours at room temperature. Thereafter, the plate was washed five times with TBST, each well applied with 100 μl anti-IgY-HRP conjugate, and incubated at room temperature with shaking for one hour. Then, the plate was washed five times with TBST and incubated for 10 min at room temperature on a shaker with TMB One Solution. The reaction was stopped with 1 M hydrochloric acid and the absorbance was measured immediately at 450 nm. The BDNF concentration was determined from a standard curve.

Assay [7] concerns human dermal microvascual endothelial cells (HDMEC). The assay can be described thus: BDNF production in HDMEC (BDNF Emax immunoassay of cell medium). Conditions: for lowest dose stimulating BDNF expression: serum-free medium, 24 hours stimulation. Type of assay: cell-based. How it is done:
as §5, §6

For the substance “Ala^1-Arg^2-Val^3-Ser^4-Ile^5-His^6-Cys^7 (ARVSIHC) [TXA302]”, the “mNRS: first day of significant increase in performance vs vehicle” value in assay [1] came to 15 days. In assay [2], the “forelimb placement: first day of statistically significant improvement vs vehicle” value is 15 days; the “forelimb placement score improvement vs vehicle control” value is “more than 7 points”; the “forelimb placement score improvement vs vehicle control, percent” value is on record as about 78%. Further, in assay [3], the “blood flow compared to vehicle controls and to rats receiving TXA301” value is listed as “markedly improved blood flow”; the “blood flow ratio vs vehicle” value is listed as “statistically significant improvement”; the “vessel diameter compared to vehicle controls and to rats receiving TXA301” value was “increased vessel diameter”; the “vessel diameter vs vehicle” value was “statistically significant improvement”. In the assay on HUVEC cells, the “dose of observed maximum cAMP” value was “approximately 1×10^−9 M” and the “lowest dose giving significant increase in cAMP” value came out at 10 pM. In addition, the “body swing test: first day of statistically significant improvement vs vehicle” value in assay [4] is 15 days. In addition, the “stepping test: first day of statistically significant effect vs vehicle” value in assay [5] was determined as 15 days.

Consider “Asp^1-Arg^2-Val^3-Tyr^4-Ile^5-His^6-Pro^7 (DRVYIHP) [Ang (1-7), naturally-occurring Ang-(1-7), reference compound]”, for which the “lowest dose stimulating significant BDNF expression” value in assay [6] turned out to be 10 nM. Further, the “lowest dose stimulating BDNF expression” value in assay [7] was determined as 10 nM.

Turning to “TXA301: angiotensin (1-7) peptide coded TXA301 (SEQ ID NO: 20); sequence not printed in the text (DRVSIHC)”, in assay [1], the “mNRS: first day of significant increase in performance vs vehicle” value was 15 days. In assay [2], the “forelimb placement: first day of statistically significant improvement vs vehicle” value came to 22 days; the “forelimb placement score improvement vs vehicle control” value came out at 4 points; the “forelimb placement score improvement vs vehicle control, percent” value was about 44%. Moreover, in assay [6] (compared with 1×10^−11 M), the “BDNF expression at doses 100,000 times higher than 1×10^−11” value was “statistically similar levels of expression”. Moreover, the “lowest dose stimulating significant BDNF expression” value in assay [6] was determined as 0.01 nM. In assay [3], the “blood flow ratio vs vehicle” value was “statistically significant improvement” and the “vessel diameter vs vehicle” value is reported as “statistically significant improvement”. The “body swing test: first day of statistically significant improvement vs vehicle” value in assay [4] is 22 days. Also, the “stepping test: first day of statistically significant effect vs vehicle” value in assay [5] was 15 days. Besides, in assay [7] (compared with 1×10^−11 M), the “BDNF expression at doses 100,000 times higher than 1×10^−11” value is “statistically similar levels of expression”. In assay [7], the “lowest dose stimulating BDNF expression” value came out at 0.01 nM.
